# pKi: −log10 of the molar value. Where two headings read alike, the source gives them in different places.
# Columns and labels:
# [1] = target: recombinant Fyn (Homo sapiens, UniProt P06241); experiment: Enzymatic assay on isolated Fyn kinase; details: for Ki: read-out: Enzymatic Data (Ki, μM) Fyn
# Description: Kinase assays were performed in presence of 200 μM ATP and 100 μM peptide substrate. All inhibition assays were conducted with 0.01 μg active kinase, 0.33 μmol [^γ32P]ATP, 60 mM HEPES-NaOH pH 7.5, 3 μM Na-orthovanadate, 1.2 mM DTT, 50 μg/ml PEG20.0000, 10 mM magnesium acetate, 0.004% NP40 and 10% DMSO in a final volume of 10 μL. Fyn and inhibitors were preincubated in ice for 5 min; after addition of the substrates the reaction was conducted at 30° C. for 10 min. The reaction was stopped by adding 5 μL of 3% phosphoric acid. Aliquots (10 μL) were then transferred into a P30 Filtermat (PerkinElmer), washed five times with 75 mM phosphoric acid and once with acetone for 5 minute. The filter was dried and transferred to a sealable plastic bag, and scintillation cocktail (4 mL) was added. Spotted reactions were read in a MicroBeta Liquid (Perkinelmer) scintillation counter. The ID50 values were obtained according to the following equation:
# Ki values toward recombinant Fyn were calculated using the equation:
# according to a competitive mechanism of inhibition toward ATP substrate, where [SATP] is the concentration of ATP. Curve fitting was performed with the program GraphPad Prism version 5.00.
# [2] = Water solubility assay; details: for solubility at 24 h / solubility thermodynamic at 24 h: water, 20 °C, thermodynamic from solid
# [3] = PAMPA, BBB permeability; details: for PAMPA BBB (MR %): Membrane Retention; for Papp at 5 h, 0.5 mM: PAMPA, pH 7.4
# Description: (§1) Donor solution (0.5 mM) was prepared by diluting 1 mM dimethylsulfoxide (DMSO) compound stock solution using phosphate buffer (pH 7.4, 0.025 M). […] Donor solution (150 μL) was added to each well of the filter plate. To each well of the acceptor plate were added 300 μL of solution (50% DMSO in phosphate buffer). All compounds were tested in three different plates on different days. The sandwich was incubated for 5 h at room temperature under gentle shaking. After the incubation time, the plates were separated, and samples were taken from both receiver and donor sides and analyzed using LC with UV detection at 280 nm.
# (§2) Permeability (Papp) for PAMPA was calculated according to the following equation, obtained from Wohnsland and Faller^27 and Sugano et al.^28 equation with some modification in order to obtain permeability values in cm s^−1,
# (§3) Drug concentration is estimated by using the peak area integration. Membrane retentions (%) were calculated according to the following equation:
# (§4) where r is the ratio between drug concentration in the acceptor and equilibrium concentration, D, A, and Eq represented drug concentration in the donor, acceptor and equilibrium solution, respectively.
# (§5) Donor solution of tested compounds (0.5 mM) was prepared by diluting 1 mM dimethylsulfoxide (DMSO) compound stock solution using phosphate buffer (pH 7.4, 25 mM). […] Donor solution (150 μL) was added to each well of the filter plate. To each well of the acceptor plate were added 300 μL of solution (50% DMSO in phosphate buffer). Compounds was tested in three different plates on different days. The sandwich was incubated for 5 h at room temperature under gentle shaking.
# (§6) Permeability (Papp) for PAMPA was calculated according to the following equation, obtained from Wohnsland and Faller and Sugano et al.^27, 28.
# (§7) Drug concentration is estimated by using the peak area integration. Membrane retention (%) was calculated according to the following equation:
# [4] = Microsomal stability assay; details: for Metabolic Stab. %: percentage of unmodified drug, Table 8; for Metabolic Stab.: percentage of unmodified parent drug, human liver microsomes 60 min
# [5] = PAMPA, intestinal (GI) permeability; details: for PAMPA GI (MR %): Membrane Retention; for Papp at 5 h, 0.5 mM / Papp: PAMPA; for Papp at 5 h, 0.5 mM: pH 7.4; for Papp: Table 6
# Description: as §1, §2, §3, §4, §5, §6, §7
# [6] = target: T1, Recombinant human Src (Homo sapiens, UniProt P12931); experiment: Enzymatic assay on isolated Src; type: biochemical; details: for Ki: mean of at least two experiments, read-out: Enzymatic Data (Ki, μM) c-Src
# T1 construct: purchased Upstate (Lake Placid, N.Y.)
# T1 sequence (P12931 whole entry): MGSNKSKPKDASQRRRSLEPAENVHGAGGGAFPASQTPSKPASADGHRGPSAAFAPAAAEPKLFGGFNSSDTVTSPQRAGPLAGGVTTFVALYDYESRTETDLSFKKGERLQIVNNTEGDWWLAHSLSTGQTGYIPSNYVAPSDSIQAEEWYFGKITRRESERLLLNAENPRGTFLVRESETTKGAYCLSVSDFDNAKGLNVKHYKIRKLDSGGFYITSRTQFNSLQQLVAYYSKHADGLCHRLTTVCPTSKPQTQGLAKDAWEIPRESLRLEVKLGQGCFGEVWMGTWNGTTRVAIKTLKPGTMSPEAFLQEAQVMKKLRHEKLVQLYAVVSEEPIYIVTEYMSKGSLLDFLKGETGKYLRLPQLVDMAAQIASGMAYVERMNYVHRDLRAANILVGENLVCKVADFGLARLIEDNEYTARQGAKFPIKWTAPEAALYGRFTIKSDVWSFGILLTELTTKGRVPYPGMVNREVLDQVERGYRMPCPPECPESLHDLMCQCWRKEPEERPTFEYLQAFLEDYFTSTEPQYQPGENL
# Excerpt: Recombinant human Src was purchased from Upstate (Lake Placid, N.Y.).
# [7] = Stability tests in phosphate buffer and methanol; type: physicochemical; details: 20° C., 48 h incubation
# [8] = Enzymatic stability in human plasma; type: in vitro ADME; details: human, pooled human plasma diluted with phosphate buffer, pH 7.4; 37° C.; read-out: Stability Human Plasma t1/2 (converted)
# Sequence of recombinant Fyn (P06241 whole entry, looked up): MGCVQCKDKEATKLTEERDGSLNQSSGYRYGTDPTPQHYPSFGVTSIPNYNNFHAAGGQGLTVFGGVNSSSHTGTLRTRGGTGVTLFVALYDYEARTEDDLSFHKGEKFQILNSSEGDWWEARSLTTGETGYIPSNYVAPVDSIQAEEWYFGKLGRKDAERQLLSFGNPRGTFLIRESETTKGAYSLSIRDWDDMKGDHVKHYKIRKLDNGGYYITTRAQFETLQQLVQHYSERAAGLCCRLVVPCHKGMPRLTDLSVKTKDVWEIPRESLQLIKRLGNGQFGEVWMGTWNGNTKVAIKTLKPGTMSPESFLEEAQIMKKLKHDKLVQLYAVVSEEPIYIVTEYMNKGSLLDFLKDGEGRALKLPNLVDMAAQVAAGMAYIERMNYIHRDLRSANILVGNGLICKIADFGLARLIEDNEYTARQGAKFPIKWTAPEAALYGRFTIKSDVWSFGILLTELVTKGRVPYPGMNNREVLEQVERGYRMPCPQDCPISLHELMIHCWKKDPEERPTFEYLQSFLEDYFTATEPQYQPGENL
smiles,measurement,setting,value
ClC(Cn1ncc2c(NCCc3ccccc3)nc(SCCN3CCOCC3)nc21)c1ccccc1 (stereo not shown),pKi,[1],< 4.00
"CSc1nc(NCCc2ccccc2)c2cnn(CC(Cl)c3ccccc3)c2n1 (stereo not shown) [Si35, 1-(2-chloro-2-phenylethyl)-6-(methylthio)-N-phenethyl-1H-pyrazolo[3,4-d]pyrimidin-4-amine]",solubility at 24 h,[2],0.166 µM
same,solubility thermodynamic at 24 h,[2],0.07 µg/mL
same,PAMPA BBB (MR %),[3],(24.5) %
same,"Papp at 5 h, 0.5 mM",[3],6.17 ×10⁻⁶ cm/s
same,Metabolic Stab. %,[4],96.2%
same,PAMPA GI (MR %),[5],(33.0) %
same,"Papp at 5 h, 0.5 mM",[5],7.4 ×10⁻⁶ cm/s
CSc1nc(Nc2cccc(Br)c2)c2cnn(CCc3ccccc3)c2n1,Ki,[6],0.2 µM
same,Papp,[5],3.26 10^−6 cm/sec
Clc1ccccc1CNc1ncnc2c1cnn2CC(Cl)c1ccc(Br)cc1 (stereo not shown) [Si221],H2O Sol. (Log S),[2]; Table 8,(<−8.60) log mol · L^−1
same,H2O Sol.,"[2]; Table 8, 20° C., 24 h",<0.01 µg/mL
same,PAMPA BBB,[3]; Blood Brain Barrier PAMPA,13.23 10^−6 cm · sec^−1
same,PAMPA BBB (MR %),[3],(7.3) %
same,Metabolic Stab. %,[4],95.2%
same,PAMPA GI,"[5]; Gastrointestinal PAMPA, Table 8",8.78 10^−6 cm · sec^−1
same,PAMPA GI (MR %),[5],(21.0) %
ClC(Cn1ncc2c(NCCc3ccccc3)nc(SC3CCCC3)nc21)c1ccccc1 (stereo not shown),pKi,[1],< 4.00
"CC(Cn1ncc2c(Nc3cccc(O)c3)nc(SCCN3CCOCC3)nc21)c1ccccc1.Cl (stereo not shown) [Si329, 3-{[6-[(2-Morpholin-4-ylethyl)thio]-1-(2-phenylpropyl)-1H-pyrazolo[3,4-d]pyrimidin-4-yl]amino}phenol hydrochloride]",H2O Solubility,[2]; Table 6,1 µg/mL
same,Metabolic Stab.,[4],99%
same,Papp,[5],6.81 10^−6 cm/sec
Clc1cccc(Nc2nc(SCCN3CCOCC3)nc3c2cnn3CCc2ccccc2)c1,Ki,[6],1.2 µM
same,Papp,[5],3.50 10^−6 cm/sec
CCCNc1nc(SCCN2CCOCC2)nc2c1cnn2CC(Cl)c1ccccc1 (stereo not shown) [drawing 192],Ki,[1],8.15 µM
"CSc1nc(NCCc2cccc(Cl)c2)c2cnn(/C=C/c3ccccc3)c2n1 [Si215, N-[2-(3-chlorophenyl)ethyl]-6-(methylthio)-1-[2-phenylvinyl]-1H-pyrazolo[3,4-d]pyrimidin-4-amine]",pKi,[1],4.80 to 5.12
CCCCSc1nc(Nc2cccc(Cl)c2)c2cnn(CC(Cl)c3ccccc3)c2n1 (stereo not shown) [Si174],pKi,[1]; read-out: Ki Fyn,5.85
CC(Cn1ncc2c(Nc3cccc(F)c3)nc(SCCN3CCOCC3)nc21)c1ccccc1 (stereo not shown),Ki,[6],2.34 µM
same,Papp,[5],6.51 10^−6 cm/sec
CC(=O)c1ccc(-c2nn(CC(C)c3ccccc3)c3ncnc(N)c23)cc1 (stereo not shown) [drawing 206],pKi,[1],< 5.00
CC(C)Sc1nc(Nc2cccc(Br)c2)c2cnn(CC(Cl)c3ccccc3)c2n1 (stereo not shown),Ki,[6],0.62 µM
ClC(Cn1ncc2c(NCc3ccccc3)nc(Cc3ccccc3)nc21)c1ccccc1 (stereo not shown) [drawing 200],Ki,[1],13 µM
"CSc1nc(N(C(=O)OCCN2CCN(C)CC2)c2cccc(Cl)c2)c2cnn(CCc3ccccc3)c2n1 [proSi214, 2-(4-Methylpiperazin-1-yl)ethyl (3-chlorophenyl)(6-(methylthio)-1-phenethyl-1H-pyrazolo[3,4-d]pyrimidin-4-yl)carbamate]",half-life at 500 μM,"[7]; methanol, read-out: Stability MeOH t1/2",> 48 h
same,half-life at 500 μM,"[7]; phosphate buffer, pH 7.4, read-out: Stability PBS pH 7.4 t1/2",> 48 h
same,half-life at 100 μM,[8],3.67 h
same,solubility at 24 h,[2],11.2 µM
same,solubility thermodynamic at 24 h,[2],6.32 µg/mL
same,PAMPA BBB (MR %),[3],(49.7) %
same,"Papp at 5 h, 0.5 mM",[3],4.3 ×10⁻⁶ cm/s
same,PAMPA GI (MR %),[5],(63.1) %
same,"Papp at 5 h, 0.5 mM",[5],4.69 ×10⁻⁶ cm/s
CCSc1nc(Nc2cccc(Br)c2)c2cnn(CC(C)c3ccccc3)c2n1 (stereo not shown),pKi,[6],~7.00
same,Ki,[6],0.1 µM
same,Papp,[5],2.03 10^−6 cm/sec
"CC(Cn1nc(-c2ccc(Cl)cc2)c2c(N)ncnc21)c1ccccc1 (stereo not shown) [Si337, 3-(4-Chlorophenyl)-1-(2-phenylpropyl)-1H-pyrazolo[3,4-d]pyrimidin-4-amine]",pKi,[1],6.11
same,decreased Fyn activity on substitution of chlorine by methyl in N1 side chain,"[1]; Si312 vs Si244, Si337 vs Si308, Si338 vs Si309",about 10 fold
CC(Cn1ncc2c(Nc3cccc(Cl)c3)nc(SCCN3CCOCC3)nc21)c1ccccc1 (stereo not shown),Ki,[6],0.97 µM
same,Papp,[5],5.51 10^−6 cm/sec
"Fc1cccc(Nc2nc(SC3CCCC3)nc3c2cnn3CC(Cl)c2ccccc2)c1 (stereo not shown) [Si170, 1-(2-Chloro-2-phenylethyl)-6-(cyclopentylthio)-N-(3-fluorophenyl)-1H-pyrazolo[3,4-d]pyrimidin-4-amine]",pKi,[6]; read-out: Ki c-Src,~7.00
"OCCNc1nc(NCc2ccccc2)c2cnn(/C=C/c3ccccc3)c2n1 [Si74, 2-(4-benzylamino-1-styryl-1H-pyrazolo[3,4-d]pyrimidin-6-ylamino)-ethanol]",pKi,[1]; read-out: Ki Fyn,5.94
Fc1ccc(CCn2ncc3c(Nc4cccc(Cl)c4)nc(SCCN4CCOCC4)nc32)cc1 [drawing 171],Ki,[6],0.1 µM
same,Metabolic Stab.,[4],97%
same,"Papp at 5 h, 0.5 mM",[5],2.15 ×10⁻⁶ cm/s
COc1ccc(-c2nn(CC(Cl)c3ccccc3)c3ncnc(N)c23)cc1 (stereo not shown),Ki,[1],1.49 µM
CC(C)Sc1nc(Nc2ccccc2)c2cnn(CC(Cl)c3ccccc3)c2n1 (stereo not shown),Ki,[6],0.3 µM
CC(C)Sc1nc(Nc2cccc(F)c2)c2cnn(CC(Cl)c3ccccc3)c2n1 (stereo not shown),Ki,[6],0.26 µM
